Five molecules from patent publication US20110217300A1, “Quinazolinone Compounds and Methods of Use Thereof” (priority 2007, published 2011) can be followed below.

For one experiment, the target named is T1, HsEg5 (Homo sapiens, UniProt P52732).
T1 sequence (P52732 18-359 limits assumed): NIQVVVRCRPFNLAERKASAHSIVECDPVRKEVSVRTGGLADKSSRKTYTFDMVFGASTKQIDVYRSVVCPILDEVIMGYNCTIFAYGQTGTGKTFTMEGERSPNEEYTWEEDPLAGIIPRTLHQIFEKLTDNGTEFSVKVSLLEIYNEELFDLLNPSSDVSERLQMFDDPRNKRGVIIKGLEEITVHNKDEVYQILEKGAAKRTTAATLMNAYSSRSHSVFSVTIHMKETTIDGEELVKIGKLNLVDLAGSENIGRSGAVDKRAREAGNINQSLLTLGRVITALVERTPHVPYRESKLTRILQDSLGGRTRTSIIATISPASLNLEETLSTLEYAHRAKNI
In words: Luminescent detection of HsEg5 ATPase activity (Kinase-Glo Plus). In kind it is biochemical. As to the method: Purified HsEg5 motor fragment was activated by mixture with preformed MT polymer (Cytoskeleton, Denver, Colo.) at room temperature for 20 minutes. MT activated ATPase activity was measured using Kinase-Glo® Plus Luminescent Kinase Assay (Promega, Madison, Wis.).
For inhibitor screening, 5 μL of compounds were incubated with 20 μL of MT-activated HsEg5 such that the final concentrations for compound range from 100 μM to 5 nM (1 to 3 serial dilutions, final concentration) and final concentration for HsEg5 is 25 nM. The mixture was incubated at room temperature for 20 minutes with mild shaking. The screening assay contained 0.3% DMSO in all reaction wells. We used wells containing only DMSO as negative controls and wells without ATP as background. Addition of 15 μL of 13 μM ATP (final concentration of 5 μM) initiated the ATP hydrolysis reaction. The 40 μL-reaction was allowed to proceed at room temperature for 45 minutes before addition of 40 μL of Kinase®-Glo Plus. After 15-minute development at room temperature, the luminescent was measured.
Eg5 IC50 data was generated using both fluorescence and Luminescence detection assays as described above. Compounds I-69 were screened using automated fluorescence assay while compounds 70-83 were screened using Luminescence detection assay. (See reference “Zhang B, Senator D, Wilson C J, Ng S C. (2005) “Development of a high-throughput robotic fluorescence-based assay for HsEg5 inhibitor screening” Anal Biochem. 345:326-335″).

For the next experiment, the system named is NCI-H460. In words: MTS cell viability assay. The settings on record: Homo sapiens, NCI-H460, 72 h, read-out: MTS NCI H460 GI50. It counts as cell-based, human. The essentials:
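GI50 values come from tetrazolium (MTS) absorbance at 490 nm, measured within two hours of SDS addition. Cells had been treated with compound for 72 hours in supplemented DMEM, then given […] PMS 7.67 mg/L for 4 hours.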
A general note: Tetrazolium assays rely on reduction of a dye to a coloured formazan, in cell work by metabolically active cells.

The next experiment deals with A549. Briefly: MTS cell viability assay. In kind it is cell-based. As to conditions: Homo sapiens, A549, 72 h, read-out: MTS NCI A549 GI50. The method in brief:
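A549 and a second human cancer line seeded in DMEM/10% FBS, allowed 16–24 h to attach, then exposed 72 h at 37 °C, 5% CO2 to serially diluted compound (final DMSO 0.33%). Viability measured by MTS.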

pIC50: −log10 of the molar value.

As usually defined, the pIC50 is the IC50 on a negative log10 scale, so that one unit is a factor of ten. The GI50 is the concentration giving 50% growth inhibition. As to `C#CC[C@H](c1nc2cc(Cl)ccc2c(=O)n1Nc1ccccc1)N(CCCN)C(=O)c1cc(F)c(F)c(F)c1F` [Compound 72, (R)—N-(3-Aminopropyl)-N-(1-(7-chloro-4-oxo-3-(phenylamino)-3,4-dihydroquinazolin-2-yl)but-3-ynyl)-2,3,4,5-tetrafluorobenzamide], the pIC50 on HsEg5 was 7.40. Moreover, the concentration for 50% growth inhibition (GI50) was found to be 330 nM in the experiment with NCI-H460 and 620 nM in the experiment on A549.
For `C#CC[C@H](c1nc2cc(Cl)ccc2c(=O)n1Nc1ccccc1)N(CCCN)C(=O)c1c(OC)ccc(F)c1F` [Compound 77], in that order: 7.15, 530 nM and 860 nM.
For `C#CC[C@H](c1nc2cc(Cl)ccc2c(=O)n1Nc1ccccc1)N(CCCN)C(=O)c1ccc(OC)c(F)c1F` [Compound 78], in that order: 7.40, 700 nM and 1450 nM.
The matching figures for `C#CC[C@H](c1nc2cc(Cl)ccc2c(=O)n1Nc1ccccc1)N(CCCN)C(=O)c1cc(F)cc(F)c1` [Compound 80, (R)—N-(3-Aminopropyl)-N-(1-(7-chloro-4-oxo-3-(phenylamino)-3,4-dihydroquinazolin-2-yl)but-3-ynyl)-3,5-difluorobenzamide]: 7.05, 100 nM and 580 nM.
With `C#CC[C@H](c1nc2cc(Cl)ccc2c(=O)n1Nc1ccccc1)N(CCCN)C(=O)c1ccc(C)c(F)c1F` [Compound 76, N-(3-Amino-propyl)-N—[(R)-1-(7-chloro-4-oxo-3-phenylamino-3,4-dihydro-quinazolin-2-yl)-but-3-ynyl]-2,3-difluoro-4-methyl-benzamide], the pIC50 on HsEg5 was 6.89. The results for the concentration for 50% growth inhibition (GI50) with NCI-H460 and in the experiment with A549 were 860 nM and 1300 nM, respectively.
